Read-outs that look alike come from different tables or passages of the source.
Legend:
[1] = Metabolic stability in mouse liver microsomes; assay type: in vitro ADME; details: 1 μM test item, 60 minutes, 37° C., NADPH
Protocol: (§1) Metabolic stability studies were conducted on Compounds A, A1, and A2 as well as Example 128 of WO 2012/151525 using mouse, rat, dog, monkey, and human liver microsomes. The protocol for the studies with mouse, rat, and human liver microsomes (all from BD Gentest, USA) is provided below. 0.4 mg protein was preincubated with 2 mM NADPH (cofactor) in phosphate buffer (pH-7.4) for 15 minutes at 37° C. and then added with 1 μM test item and incubated further for 60 minutes in triplicate. The reaction mixture was terminated with methanol containing an internal standard and centrifuged further to analyze the test item remaining in the supernatant by LC-MS/MS. The percent parent compound remaining was calculated in comparison with similar samples terminated at 0 minutes.

[2] = Metabolic stability in rat liver microsomes; assay type: in vitro ADME; details: 1 μM test item, 60 minutes, 37° C., NADPH
Protocol: as §1

[3] = Metabolic stability in dog liver microsomes; assay type: in vitro ADME
[4] = Metabolic stability in monkey liver microsomes; assay type: in vitro ADME
Protocol: as §1

[5] = Metabolic stability in human liver microsomes; assay type: in vitro ADME; details: 1 μM test item, 60 minutes, 37° C., NADPH
Protocol: as §1

[6] = Oral pharmacokinetics in rats; assay type: in vivo; details: Rat, 10 mg/kg
Protocol: The oral bioavailability of Compound A1 (free base) was evaluated in rats and mice. The protocol for the pharmacokinetics studies in rat is provided below.
All animals were fasted overnight (12 hours) before dosing and continued till 4.0 hours after administration of test item. Test item formulations were prepared in 1% Tween 80 and 99% media (0.5% Methyl cellulose, 4000cPs, pH 2.2). The blood samples (150 μL from each animal) were collected from the orbital sinus, and placed into a micro centrifuge tube containing disodium EDTA as an anticoagulant. Blood samples were centrifuged immediately with a speed of 1000 g for 10 min at 4° C. and separated plasma samples were frozen at below −80° C. and stored until analysis. The concentrations of test item in all formulations were analyzed by HPLC. The plasma concentrations of test item in all samples were analyzed by LC-MS/MS. Pharmacokinetic parameters (Cmax, AUC0-t, Tmax, and t^1/2) were estimated by using WinNonlin software. Results are provided in Table 3 for Compound A, A1, and Example 128 of WO 2012/151525 in rats and Compound A1 in mice.

PI3Kδ = PI3Kδ (Homo sapiens, UniProt O00329); assay: Assay 1: Fluorescent (HTRF) determination of PI3 kinase enzyme activity, PI3Kδ; assay type: biochemical
Excerpt: (§2) Phosphoinositide 3 kinases (PI3K) belong to a class of lipid kinases that play a critical role in the regulation of several key cellular processes. The PI3K are capable of phosphorylating the 3-hydroxy position of phosphoinositols thereby generating second messengers involved in downstream signaling events. The homogenous time resolved fluorescence (HTRF) assay allows detection of 3,4,5-triphosphate (PIPS) formed as a result of phosphorylation of phosphotidylinositol 4,5-biphosphate (PIP2) by PI3K isoforms such as α, β, γ or δ.
(§3) PI3K isoform activity for α, β, γ or δ was determined using a PI3K human HTRF™ Assay Kit (Millipore, Billerica, Mass.) with modifications. All incubations were carried out at room temperature. 0.5 μl of 40× inhibitor (in 100% DMSO) or 100% DMSO were added to each well of a 384-well white plate (Greiner Bio-One, Monroe, N.C.) containing 14.5 μl 1× reaction buffer/PIP2 (10 mM MgCl2, 5 mM DTT, 1.38 μM PIP2) mix with or without enzyme, followed by 5 μl/well of 400 μM ATP and incubated for an additional 30 minutes. The reaction was terminated by adding 5 μl/well stop solution (Millipore, Billerica, Mass.). 5 μl of detection mix (Millipore, Billerica, Mass.) was then added to each well and incubated for 6-18 hours in the dark. HRTF ratio was measured on a microplate reader (BMG Labtech., Germany) at an excitation wavelength of 337 nm and emission wavelengths of 665 and 615 nm with an integration time of 400 msec counting delay of 50 msec.

PI3Kγ = PI3Kγ (Homo sapiens, UniProt P48736); assay: Assay 1: Fluorescent (HTRF) determination of PI3 kinase enzyme activity, PI3Kγ; assay type: biochemical
Excerpt: as §2, §3

[7] = reported at 55th ASH Annual Meeting, 2013; cited from earlier work

Chain of PI3Kγ (P48736 whole entry): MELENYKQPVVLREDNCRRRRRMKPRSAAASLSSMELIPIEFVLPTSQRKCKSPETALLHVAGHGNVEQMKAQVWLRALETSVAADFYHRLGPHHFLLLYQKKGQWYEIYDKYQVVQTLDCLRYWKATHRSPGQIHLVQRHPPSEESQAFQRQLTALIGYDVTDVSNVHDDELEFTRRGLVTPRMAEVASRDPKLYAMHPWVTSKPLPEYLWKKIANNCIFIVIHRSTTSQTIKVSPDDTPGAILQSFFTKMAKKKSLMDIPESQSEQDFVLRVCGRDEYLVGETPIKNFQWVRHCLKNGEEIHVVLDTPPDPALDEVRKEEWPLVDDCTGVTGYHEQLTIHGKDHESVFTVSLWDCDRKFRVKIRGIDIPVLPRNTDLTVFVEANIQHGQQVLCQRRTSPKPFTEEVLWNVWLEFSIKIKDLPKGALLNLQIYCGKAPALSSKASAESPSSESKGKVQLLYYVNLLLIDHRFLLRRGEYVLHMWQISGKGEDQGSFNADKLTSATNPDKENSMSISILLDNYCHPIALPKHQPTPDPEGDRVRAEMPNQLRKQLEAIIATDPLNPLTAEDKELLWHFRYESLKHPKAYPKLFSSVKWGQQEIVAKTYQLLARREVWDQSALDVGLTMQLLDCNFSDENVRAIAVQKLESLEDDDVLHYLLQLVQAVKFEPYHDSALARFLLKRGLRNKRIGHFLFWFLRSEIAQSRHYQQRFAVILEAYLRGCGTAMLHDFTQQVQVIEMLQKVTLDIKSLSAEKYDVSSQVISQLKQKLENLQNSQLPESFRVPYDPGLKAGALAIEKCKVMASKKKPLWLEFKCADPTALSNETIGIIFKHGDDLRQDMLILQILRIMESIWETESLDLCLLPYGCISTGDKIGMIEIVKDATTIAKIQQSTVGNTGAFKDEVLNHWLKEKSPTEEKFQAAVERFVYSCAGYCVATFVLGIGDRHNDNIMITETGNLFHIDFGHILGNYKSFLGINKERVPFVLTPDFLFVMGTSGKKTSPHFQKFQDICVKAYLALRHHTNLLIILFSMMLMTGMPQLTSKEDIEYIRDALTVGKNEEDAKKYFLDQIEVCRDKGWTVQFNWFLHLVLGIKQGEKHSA
Chain of PI3Kδ (O00329 whole entry, canonical isoform): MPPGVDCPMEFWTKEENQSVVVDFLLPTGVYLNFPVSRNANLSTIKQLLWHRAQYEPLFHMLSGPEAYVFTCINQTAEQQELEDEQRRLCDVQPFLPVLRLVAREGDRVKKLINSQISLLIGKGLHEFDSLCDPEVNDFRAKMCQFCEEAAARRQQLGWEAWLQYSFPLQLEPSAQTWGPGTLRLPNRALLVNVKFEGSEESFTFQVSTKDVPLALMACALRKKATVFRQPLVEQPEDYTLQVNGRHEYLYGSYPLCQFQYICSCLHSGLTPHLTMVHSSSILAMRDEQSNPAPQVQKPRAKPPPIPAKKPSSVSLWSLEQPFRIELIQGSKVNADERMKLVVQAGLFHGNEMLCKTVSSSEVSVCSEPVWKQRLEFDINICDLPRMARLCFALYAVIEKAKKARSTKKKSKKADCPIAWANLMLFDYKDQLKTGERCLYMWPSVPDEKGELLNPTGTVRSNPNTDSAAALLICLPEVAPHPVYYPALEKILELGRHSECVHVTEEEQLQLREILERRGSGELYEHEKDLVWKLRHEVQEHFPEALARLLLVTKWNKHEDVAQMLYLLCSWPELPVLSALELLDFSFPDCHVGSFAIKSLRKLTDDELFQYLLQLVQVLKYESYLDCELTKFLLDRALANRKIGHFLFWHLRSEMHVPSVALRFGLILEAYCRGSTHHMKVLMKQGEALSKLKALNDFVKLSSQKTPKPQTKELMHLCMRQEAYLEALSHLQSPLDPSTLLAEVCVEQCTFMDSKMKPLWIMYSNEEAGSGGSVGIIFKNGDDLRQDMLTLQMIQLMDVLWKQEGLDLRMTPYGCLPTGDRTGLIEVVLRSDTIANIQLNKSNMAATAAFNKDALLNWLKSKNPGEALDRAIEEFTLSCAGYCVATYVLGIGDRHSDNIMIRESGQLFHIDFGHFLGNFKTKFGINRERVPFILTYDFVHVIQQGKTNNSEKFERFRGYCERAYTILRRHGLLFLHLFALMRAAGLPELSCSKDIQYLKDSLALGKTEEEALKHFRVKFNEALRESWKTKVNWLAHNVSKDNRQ
Chain of PI3Kδ (P27986 whole entry partner, canonical isoform): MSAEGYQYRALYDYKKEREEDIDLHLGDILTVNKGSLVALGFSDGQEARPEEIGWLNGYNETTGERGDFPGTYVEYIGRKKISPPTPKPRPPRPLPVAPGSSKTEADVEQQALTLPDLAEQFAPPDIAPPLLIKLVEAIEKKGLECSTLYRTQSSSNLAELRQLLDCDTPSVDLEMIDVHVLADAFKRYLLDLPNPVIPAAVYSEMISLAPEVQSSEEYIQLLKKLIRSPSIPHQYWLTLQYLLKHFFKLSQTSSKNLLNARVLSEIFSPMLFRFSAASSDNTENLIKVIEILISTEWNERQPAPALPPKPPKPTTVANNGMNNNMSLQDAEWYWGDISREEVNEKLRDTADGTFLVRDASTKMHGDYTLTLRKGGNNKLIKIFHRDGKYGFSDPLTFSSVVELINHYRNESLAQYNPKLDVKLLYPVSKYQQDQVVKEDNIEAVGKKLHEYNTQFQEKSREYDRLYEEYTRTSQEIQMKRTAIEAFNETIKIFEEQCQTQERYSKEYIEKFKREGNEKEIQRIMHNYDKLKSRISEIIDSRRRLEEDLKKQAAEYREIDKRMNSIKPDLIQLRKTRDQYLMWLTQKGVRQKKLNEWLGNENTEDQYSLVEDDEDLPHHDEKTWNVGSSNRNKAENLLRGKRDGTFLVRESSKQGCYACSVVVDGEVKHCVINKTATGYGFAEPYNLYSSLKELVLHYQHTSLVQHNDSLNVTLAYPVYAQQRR

Compound | Metabolic stability in liver microsomes (percent parent compound remaining), Mouse [1] [%] | Metabolic stability in liver microsomes (percent parent compound remaining), Rat [2] [%] | Metabolic stability in liver microsomes (percent parent compound remaining), Dog [3] [%] | Metabolic stability in liver microsomes (percent parent compound remaining), Monkey [4] [%] | Metabolic stability in liver microsomes (percent parent compound remaining), Human [5] [%] | fold increase in AUC0-t as compared to Example 128 of WO 2012/151525 [6] [fold] | fold increase in Cmax as compared to Example 128 of WO 2012/151525 [6] [fold] | fold increase in t1/2 as compared to Example 128 of WO 2012/151525 [6] [fold] | AUC(0-t) ([6]; plasma) [µM·h] | Cmax ([6]; plasma) [nM] | Tmax ([6]; plasma) [h] | half-life ([6]; plasma) [min] | IC50 (PI3Kδ) [nM] | IC50 (PI3Kγ; read-out: IC50 (nM) PI3Kγ) [nM] | IC50 (PI3Kγ; read-out: IC50 Pi3Kγ (cell prints μM)) [nM] | maximum tolerated dose (MTD) [7] [mg BID]
COc1ccc(-c2nn(C(C)c3oc4cccc(F)c4c(=O)c3-c3cccc(F)c3)c3ncnc(N)c23)cc1NS(C)(=O)=O (racemic) [Compound A, (RS)—N-(5-(4-amino-1-(1-(5-fluoro-3-(3-fluorophenyl)-4-oxo-4H-chromen-2-yl)ethyl)-1H-pyrazolo[3,4-d]pyrimidin-3-yl)-2-methoxyphenyl)methanesulfonamide] | 96 | 91 | 64.3 | 42.3 | 69.7 | ~4 | ~1.5 | ~2.8 | 7.95 | 1020 | 2.67 | 271 | 103 | 82.9 | – | –
COc1ccc(-c2nn([C@H](C)c3oc4cccc(F)c4c(=O)c3-c3cccc(F)c3)c3ncnc(N)c23)cc1NS(C)(=O)=O [Compound A2, (R)—N-(5-(4-amino-1-(1-(5-fluoro-3-(3-fluorophenyl)-4-oxo-4H-chromen-2-yl)ethyl)-1H-pyrazolo[3,4-d]pyrimidin-3-yl)-2-methoxyphenyl)methanesulfonamide] | 68.9 | 79.5 | 52.3 | 1.9 | 60.2 | – | – | – | – | – | – | – | 92.9 | > 10000 | > 10000 | –
C[C@H](Nc1ncnc2[nH]cnc12)c1cc2cccc(Cl)c2c(=O)n1-c1ccccc1 [IPI-45] | – | – | – | – | – | – | – | – | – | – | – | – | – | – | – | 75
